According to ChEMBL document CHEMBL1157429, “Design of a fluorescence polarization assay platform for the study of human Hsp70” (Bioorg Med Chem Lett, 2008):
Activity calls are given as the source filed them. The calls are words filed in the database; no cut-off is given here.

Experiments:
[1] = Binding affinity to Escherichia coli Hsp70 by fluorescence polarization assay
[2] = Binding affinity to human recombinant Hsp70 after 24 hrs by fluorescence polarization assay
Homo sapiens [3] = species on record: Homo sapiens; assay: Decrease in binding affinity to human recombinant Hsp70 at 5 nM by fluorescence polarization assay in presence of ATP
[4] = molecular target: Heat shock protein HSP90 (Homo sapiens) (UniProt P07900+P08238); assay: Binding affinity to human recombinant Hsp90 by fluorescence polarization assay; format: protein assay
Homo sapiens [5] = species on record: Homo sapiens; assay: Binding affinity to human Hsp70 assessed as activation of single-turnover ATPase activity at 8 uM

Row | Kd [2] [nM] | Activity (Homo sapiens [3]) | Activity [4] | Activity (Homo sapiens [5]) | Structure (SMILES) | Kd [1] [nM]
1 | – | – | – | – | CC(C)C[C@H](NC(=O)[C@H](C)N)C(=O)N[C@@H](CC(C)C)C(=O)N[C@@H](CC(C)C)C(=O)N[C@@H](CO)C(=O)N[C@@H](C)C(=O)N1CCC[C@H]1C(=O)N[C@@H](CCCNC(=N)N)C(=O)N[C@@H](CCCNC(=N)N)C(=O)O | 400
2 | 426 | Active | inactive | Dose-dependent effect | CC(C)C[C@H](NC(=O)[C@H](C)NC(=O)CCCCCNC(=S)Nc1ccc(-c2c3ccc(=O)cc-3oc3cc(O)ccc23)c(C(=O)O)c1)C(=O)N[C@@H](CC(C)C)C(=O)N[C@@H](CC(C)C)C(=O)N[C@@H](CO)C(=O)N[C@@H](C)C(=O)N1CCC[C@H]1C(=O)N[C@@H](CCCNC(=N)N)C(=O)N[C@@H](CCCNC(=N)N)C(=O)O | –
